This note sets out measurements from ChEMBL document CHEMBL1201862, “PubChem BioAssay data set” (2004).

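Protocol summary: plate cells (96-well), add compound at 5 concentrations, incubate 48 h, interpolate endpoints linearly. Here, GI50 denotes the concentration required for 50% inhibition of growth.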 Active and inactive are the calls of the source. Cut-off read from the data, not from the text of the source: active = GI50 up to about 1.1 µM and inactive = higher.

Among the test systems are M19-MEL; SNB-75; LXFL 529; TK-10; HOP-92; NCI-H226; HCC 2998; SF-295; SK-MEL-2; MOLT-4; OVCAR-4; IGROV-1; SW-620; CAKI-1; SNB-19; PC-3; MDA-N; MDA-MB-231; BT-549; MDA-MB-435.
Assay in all cases: NCI anticancer screen, dose series, 48 h

On to `C/C(N)=[N+](/C)[O-]`, for which the GI50 in the assay on M19-MEL is 40.5 µM (inactive); in the assay with SNB-75, > 100 µM (inactive); with LXFL 529, > 100 µM (inactive); in the assay with TK-10, > 100 µM (inactive); in the assay on HOP-92, > 100 µM (inactive); with NCI-H226 it was > 100 µM (inactive). The GI50 was 36.9 µM (inactive) with HCC 2998; > 100 µM (inactive) in the assay on SF-295; > 100 µM (inactive) in the assay on SK-MEL-2; > 100 µM (inactive) with MOLT-4; 38.5 µM (inactive) with OVCAR-4; > 100 µM (inactive) in the assay with IGROV-1.

On to `N[C@H]1C2C3CC4C5CC(C42)C1(c1ccccc1)C53` (stereo not given in full), for which the GI50 was > 100 µM (inactive) in the assay on SW-620; > 100 µM (inactive) with M19-MEL; > 100 µM (inactive) with SNB-75; > 100 µM (inactive) in the assay with LXFL 529; > 100 µM (inactive) with TK-10; 65.8 µM (inactive) in the assay on HOP-92. The GI50 in the assay on NCI-H226 is > 100 µM (inactive); with HCC 2998, 29.7 µM (inactive); in the assay on CAKI-1, > 100 µM (inactive); with SF-295, > 100 µM (inactive); in the assay with SK-MEL-2, > 100 µM (inactive); in the assay with MOLT-4 it was > 100 µM (inactive). In addition, the GI50 in the assay with OVCAR-4, with IGROV-1 and in the assay with SNB-19 was > 100 µM (inactive) each time.

In the case of `CCc1cccc(C)c1NC(=O)C(=O)Cc1nc2ccccc2s1`, the GI50 is 0.371 µM (active) in the assay on SW-620; > 100 µM (inactive) in the assay on M19-MEL; > 100 µM (inactive) with SNB-75; > 100 µM (inactive) in the assay with LXFL 529; > 100 µM (inactive) in the assay with TK-10; 0.47 µM (active) in the assay with HOP-92. Further, the GI50 with NCI-H226, with HCC 2998, with CAKI-1, with SF-295, with SK-MEL-2 and in the assay with MOLT-4 was > 100 µM (inactive) each time. Besides, the GI50 in the assay with OVCAR-4 is > 100 µM (inactive); in the assay with IGROV-1 it was 0.444 µM (active); in the assay on SNB-19 it was > 100 µM (inactive).

For `COC1=CC(=O)C2[C@H]3Cc4ccccc4[C@H]3C2(C)C1=O` (stereo not given in full), the GI50 in the assay on SW-620 is > 100 µM (inactive); in the assay with M19-MEL it was 83.2 µM (inactive); with SNB-75, 16.9 µM (inactive); in the assay with LXFL 529, > 100 µM (inactive); in the assay with TK-10 it was > 100 µM (inactive); in the assay on HOP-92 it was > 100 µM (inactive). For the same compound, the GI50 with NCI-H226 was 81.8 µM (inactive); with HCC 2998 it was > 100 µM (inactive); in the assay on CAKI-1, > 100 µM (inactive); in the assay with SF-295 it was > 100 µM (inactive); with SK-MEL-2, > 100 µM (inactive); with MOLT-4, 91.6 µM (inactive). The GI50 with OVCAR-4, in the assay with IGROV-1 and in the assay with SNB-19 was > 100 µM (inactive) in each case.

Turning to `C/N=N/N(C)C(=O)NC`, the GI50 with SW-620, with M19-MEL, in the assay on SNB-75, in the assay on LXFL 529, in the assay with TK-10 and in the assay with HOP-92 was > 100 µM (inactive) in each case. The GI50 in the assay with HCC 2998, in the assay on CAKI-1, in the assay with SF-295, in the assay with SK-MEL-2, in the assay on MOLT-4 and in the assay with OVCAR-4 was > 100 µM (inactive) throughout. The GI50 in the assay on IGROV-1 and in the assay on SNB-19 was > 100 µM (inactive) in each case.

In the case of `COc1ccc(C(=O)N/N=C/c2c(C)n(C)n(-c3ccccc3)c2=O)cc1`, the GI50 with SW-620, with M19-MEL, in the assay with SNB-75, with LXFL 529, with TK-10 and in the assay on HOP-92 was > 100 µM (inactive) each time. In addition, the GI50 with NCI-H226, with HCC 2998, with SF-295, in the assay with SK-MEL-2, in the assay with MOLT-4 and with OVCAR-4 was > 100 µM (inactive) in each case. For the same compound, the GI50 in the assay on IGROV-1 and in the assay on SNB-19 was > 100 µM (inactive) throughout.

Turning to `O=C1CN(C(=O)c2ccccc2)Cc2[nH]c3ccccc3c21`, the GI50 in the assay on SW-620, in the assay with M19-MEL, in the assay on SNB-75, in the assay with LXFL 529, in the assay on TK-10 and with HOP-92 was > 100 µM (inactive) in each case. For the same compound, the GI50 in the assay on NCI-H226, in the assay on HCC 2998, in the assay on SF-295, in the assay on SK-MEL-2, in the assay on MOLT-4 and with OVCAR-4 was > 100 µM (inactive) in each case. Moreover, the GI50 with IGROV-1 and in the assay with SNB-19 was > 100 µM (inactive) in each case.

For the compound `Cc1cc(N(CCC#N)CCC#N)ccc1/C=C(\NC(=O)/C=C/c1ccccc1)NC(=O)Nc1ccc(Cl)cc1`, the GI50 with SW-620 is > 100 µM (inactive); with M19-MEL, 93.1 µM (inactive); in the assay on LXFL 529, 0.652 µM (active); in the assay on HOP-92, 39.4 µM (inactive); with NCI-H226 it was 30.9 µM (inactive); with HCC 2998, 58.7 µM (inactive). In addition, the GI50 is 19.2 µM (inactive) in the assay on CAKI-1; 42.5 µM (inactive) with SF-295; > 100 µM (inactive) in the assay with SK-MEL-2; > 100 µM (inactive) with MOLT-4; 18.9 µM (inactive) in the assay on OVCAR-4; 38.8 µM (inactive) in the assay with IGROV-1. In addition, in the assay on SNB-19, the GI50 was 48.4 µM (inactive).

Regarding `CN(Cc1ccccc1)C(=O)c1ccccc1C(=O)O`, the GI50 with SW-620, with M19-MEL, in the assay with SNB-75, with LXFL 529, with TK-10 and in the assay with HOP-92 was > 100 µM (inactive) each time. Besides, the GI50 in the assay on NCI-H226, in the assay with HCC 2998, in the assay on CAKI-1, in the assay with SF-295, in the assay on SK-MEL-2 and in the assay on MOLT-4 was > 100 µM (inactive) in each case. In addition, the GI50 with OVCAR-4, in the assay with IGROV-1 and in the assay on SNB-19 was > 100 µM (inactive) throughout.

Consider `C=Nc1ccc([N+](=O)[O-])cc1`, for which the GI50 with SW-620 was > 63.8 µM (inactive); in the assay with M19-MEL, > 100 µM (inactive); in the assay with SNB-75, > 100 µM (inactive); in the assay on LXFL 529, > 72.8 µM (inactive); in the assay on TK-10, > 100 µM (inactive); with HOP-92, > 100 µM (inactive). The GI50 in the assay on NCI-H226, in the assay on HCC 2998, with CAKI-1, in the assay with SF-295, in the assay with SK-MEL-2 and with MOLT-4 was > 100 µM (inactive) in each case. Also, the GI50 in the assay on OVCAR-4, in the assay with IGROV-1 and in the assay with SNB-19 was > 100 µM (inactive) in each case.

Consider `COc1cc(C(=O)N[C@H]2CCc3cc(OC)c(OC)c(OC)c3-c3ccc(SC)c(=O)cc32)cc(OC)c1OC`, for which the GI50 in the assay on SW-620 is 0.00741 µM (active); with M19-MEL, 0.0225 µM (active); in the assay on SNB-75 it was 0.252 µM (active); in the assay on LXFL 529 it was 0.00811 µM (active); with TK-10 it was 0.215 µM (active); in the assay on HOP-92, 0.06 µM (active). The GI50 in the assay on NCI-H226 is < 0.01 µM (active); in the assay with HCC 2998, 0.0113 µM (active); in the assay on SF-295, 0.00962 µM (active); in the assay with SK-MEL-2, 0.0102 µM (active); with MOLT-4 it was 0.00916 µM (active); in the assay on OVCAR-4, 1.42 µM (inactive). In addition, the figures for the GI50 in the assay on IGROV-1 and in the assay on SNB-19 were 0.0166 µM (active) and 0.00871 µM (active), respectively.

For `N#C/N=C(/NCc1ccccc1)N(Cc1ccccc1)Cc1ccccc1`, the GI50 in the assay on PC-3 was 28.2 µM (inactive); with SW-620, 64 µM (inactive); with M19-MEL, > 10 µM (inactive); with LXFL 529, > 10 µM (inactive); with TK-10, 24.8 µM (inactive); with HOP-92 it was 24.6 µM (inactive). Besides, the GI50 in the assay with NCI-H226 is 22.4 µM (inactive); in the assay with HCC 2998, 32.9 µM (inactive); in the assay on CAKI-1 it was 28.5 µM (inactive); with SF-295, 15.3 µM (inactive); in the assay with SK-MEL-2, 15.2 µM (inactive); with MDA-N, 46.7 µM (inactive). Also, the GI50 was 14.1 µM (inactive) in the assay with MOLT-4; 23.8 µM (inactive) in the assay with OVCAR-4; 18.3 µM (inactive) in the assay with MDA-MB-231; 17.4 µM (inactive) in the assay on IGROV-1; > 89.1 µM (inactive) in the assay on SNB-19; 61.4 µM (inactive) in the assay on BT-549. For the same compound, the GI50 with MDA-MB-435 is 49.1 µM (inactive).

Turning to `C#CC1(O)CCC2C3CCc4cc(Oc5nc(F)nc(-c6c7ccccc7c7sc8ccccc8n67)n5)ccc4C3CC[C@@]21C` (stereo not given in full), the GI50 is > 100 µM (inactive) with SW-620; > 100 µM (inactive) in the assay on M19-MEL; 22.1 µM (inactive) with SNB-75; > 100 µM (inactive) in the assay on LXFL 529; > 100 µM (inactive) in the assay with TK-10; > 100 µM (inactive) with HOP-92. In addition, the GI50 with NCI-H226 is > 100 µM (inactive); in the assay with HCC 2998, > 100 µM (inactive); with CAKI-1, > 100 µM (inactive); with SF-295, > 100 µM (inactive); with SK-MEL-2 it was > 100 µM (inactive); in the assay with MOLT-4, 42 µM (inactive). Also, the GI50 in the assay on OVCAR-4 was > 100 µM (inactive); with IGROV-1, > 100 µM (inactive); in the assay with SNB-19, 36.3 µM (inactive).
